Consider eight compounds from ChEMBL document CHEMBL1201862, “PubChem BioAssay data set” (2004).

Test systems include MOLT-4; HOP-62; NCI-H226; NCI-H522; OVCAR-5; OVCAR-4; EKVX; SK-MEL-5; SNB-75; K562; SW-620; U-251; SN12C; NCI-H460; SK-MEL-28; SK-MEL-2; UACC-62; HCC 2998; RXF 393; CCRF-CEM.
What all share (experiment): DTP human tumour cell line panel, 48 h

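Each compound was tested at five concentrations against cells in 96-well plates for 48 hours. GI50 marks 50% less growth.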 The source made the active and inactive calls. No stated cut-off is given here; in the data, active = GI50 up to about 1.1 µM and inactive = higher.

As for `CCCCCCCCCCCCCCCCOCC(COP(=O)([O-])OCC[N+](C)(C)C)OCCCCCCCCCCCCCCCC` (stereo not given), the GI50 in the test with MOLT-4, with HOP-62, in the test with NCI-H226, in the test with NCI-H522, with OVCAR-5 and in the test on OVCAR-4 was > 100 µM (inactive) each time. Further, the GI50 in the test on EKVX, with SK-MEL-5, in the test with SNB-75, in the test on K562, with SW-620 and in the test with U-251 was > 100 µM (inactive) each time. The GI50 in the test with SN12C, with NCI-H460, in the test with SK-MEL-28, in the test with SK-MEL-2, in the test on UACC-62 and in the test on HCC 2998 was > 100 µM (inactive) in each case. Also, the GI50 with RXF 393 and in the test with CCRF-CEM was > 100 µM (inactive) throughout.

With `CC(=O)Nc1ccc(C2=N/C(=C\c3ccc(Cl)c(Cl)c3)C(=O)O2)cc1`, the GI50 in the test on MOLT-4, in the test on HOP-62, in the test with NCI-H226, in the test with NCI-H522, in the test with OVCAR-5 and in the test on OVCAR-4 was > 100 µM (inactive) each time. The GI50 with EKVX was > 100 µM (inactive); with SK-MEL-5 it was > 100 µM (inactive); in the test on SNB-75, 64.6 µM (inactive); with K562, > 100 µM (inactive); in the test with SW-620, > 100 µM (inactive); in the test with U-251, > 100 µM (inactive). Moreover, the GI50 in the test with SN12C, in the test with NCI-H460, in the test on SK-MEL-28, in the test with SK-MEL-2, with UACC-62 and with HCC 2998 was > 100 µM (inactive) each time. Besides, the GI50 with RXF 393 and in the test on CCRF-CEM was > 100 µM (inactive) in each case.

Regarding `CC(C)(CCCCC(C)(C)NC1=NCCO1)NC1=NCCO1`, the GI50 in the test on MOLT-4, in the test on HOP-62, in the test on NCI-H226, with NCI-H522, in the test with OVCAR-5 and in the test on OVCAR-4 was > 10 µM (inactive) throughout. Also, the GI50 in the test on EKVX, with SK-MEL-5, with SNB-75, in the test with K562, in the test on SW-620 and in the test with U-251 was > 10 µM (inactive) each time. Also, the GI50 in the test with SN12C, in the test on NCI-H460, in the test on SK-MEL-28, in the test on SK-MEL-2, with UACC-62 and in the test on HCC 2998 was > 10 µM (inactive) throughout. For the same compound, the GI50 with RXF 393 and in the test with CCRF-CEM was > 10 µM (inactive) in each case.

Regarding `O=C1C(=CNC(=S)c2ccccc2)C(=O)c2ccccc21`, the GI50 is 27.5 µM (inactive) in the test with MOLT-4; 91.8 µM (inactive) in the test on HOP-62; > 100 µM (inactive) in the test with NCI-H226; 21 µM (inactive) in the test on NCI-H522; > 100 µM (inactive) in the test with OVCAR-5; 38.1 µM (inactive) in the test on OVCAR-4. The GI50 was 60.8 µM (inactive) with EKVX; 58.9 µM (inactive) in the test on SK-MEL-5; 58.9 µM (inactive) with SNB-75; 30.1 µM (inactive) with K562; 55.8 µM (inactive) with SW-620; 64.9 µM (inactive) with U-251. For the same compound, the GI50 in the test with SN12C was 46.7 µM (inactive); with NCI-H460, 70.8 µM (inactive); with SK-MEL-28, > 100 µM (inactive); with SK-MEL-2 it was 39.5 µM (inactive); with UACC-62, 28.8 µM (inactive); in the test with HCC 2998 it was 37 µM (inactive). Also, the GI50 was 46.7 µM (inactive) in the test on RXF 393 and 25 µM (inactive) with CCRF-CEM.

As to `CC1(C)C(=O)/C=C\C(=O)C(C)(C)C2=CC=C(O2)C(C)(C)C(=O)C(Br)C(Br)C(=O)C(C)(C)C2=CC=C1O2` (stereo not given), the GI50 was 3.3 µM (inactive) in the test with MOLT-4; > 100 µM (inactive) in the test on HOP-62; > 100 µM (inactive) with NCI-H226; 21.8 µM (inactive) with NCI-H522; > 100 µM (inactive) in the test with OVCAR-5; > 74.5 µM (inactive) in the test with OVCAR-4. For the same compound, the GI50 in the test with EKVX is > 100 µM (inactive); in the test on SK-MEL-5, 45 µM (inactive); with SNB-75 it was 51.6 µM (inactive); in the test with K562 it was 5.19 µM (inactive); with SW-620 it was 7.4 µM (inactive); in the test with U-251 it was 41.4 µM (inactive). In addition, the GI50 with SN12C is > 80 µM (inactive); in the test with NCI-H460, > 100 µM (inactive); in the test on SK-MEL-28, 76.7 µM (inactive); with SK-MEL-2 it was 99.1 µM (inactive); in the test on UACC-62, 24 µM (inactive); in the test on HCC 2998, > 100 µM (inactive). The GI50 with RXF 393 is 31.3 µM (inactive); with CCRF-CEM, 1.93 µM (inactive).

Consider `COc1cc2c(cc1Oc1c(Oc3c(O)c(OC)cc4c3C(CC(C)C)N(C)CC4)c(OC)cc3c1C(CC(C)C)N(C)CC3)C(CC(C)C)N(C)CC2` (stereo not given), for which the GI50 in the test with MOLT-4 was 1.03 µM (active); with HOP-62, 0.533 µM (active); in the test with NCI-H226 it was 0.422 µM (active); with NCI-H522, 0.458 µM (active); with OVCAR-5, 5.11 µM (inactive); in the test on OVCAR-4 it was 1.12 µM (inactive). For the same compound, the GI50 in the test with EKVX was 0.528 µM (active); in the test on SK-MEL-5, 0.375 µM (active); in the test on SNB-75 it was 0.611 µM (active); in the test on K562 it was 1.02 µM (active); in the test with SW-620, 0.879 µM (active); in the test with U-251, 0.492 µM (active). In addition, the GI50 in the test on SN12C is 0.577 µM (active); with NCI-H460 it was 0.519 µM (active); in the test on SK-MEL-28, 0.897 µM (active); with SK-MEL-2, 0.867 µM (active); in the test with UACC-62 it was 0.573 µM (active); with HCC 2998, 0.92 µM (active). Moreover, the values for the GI50 with RXF 393 and in the test with CCRF-CEM were 0.495 µM (active) and 0.8 µM (active), respectively.

For the compound `O=C1C(=O)c2cc([N+](=O)[O-])ccc2-c2ccc([N+](=O)[O-])cc21`, the GI50 is 0.288 µM (active) in the test on MOLT-4; 2.89 µM (inactive) in the test on HOP-62; 1.51 µM (inactive) in the test on NCI-H226; 0.863 µM (active) in the test with NCI-H522; 3.27 µM (inactive) in the test on OVCAR-5; 0.322 µM (active) in the test with OVCAR-4. The GI50 is 2.04 µM (inactive) in the test with EKVX; 1.92 µM (inactive) in the test with SK-MEL-5; 2.14 µM (inactive) in the test with SNB-75; 0.395 µM (active) in the test on K562; 0.401 µM (active) in the test on SW-620; 0.773 µM (active) with U-251. In addition, the 50% growth inhibitory concentration (GI50) was 0.927 µM (active) with SN12C; 1 µM (active) with NCI-H460; 1.99 µM (inactive) in the test with SK-MEL-28; 2.02 µM (inactive) in the test on SK-MEL-2; 0.466 µM (active) in the test on UACC-62; 2.25 µM (inactive) with HCC 2998. Further, the GI50 in the test with RXF 393 is 0.191 µM (active); with CCRF-CEM, 0.289 µM (active).

Consider `[C-]#[N+]C(=C\c1ccc(O)cc1)/C(=C/c1ccc(O)cc1)[N+]#[C-]` [XANTOCILLIN], for which the GI50 is 1.57 µM (inactive) with MOLT-4; 3.21 µM (inactive) with HOP-62; 2.37 µM (inactive) in the test with NCI-H226; 3.14 µM (inactive) in the test on NCI-H522; 4.94 µM (inactive) with OVCAR-5; 3.19 µM (inactive) in the test on OVCAR-4. In addition, the GI50 with EKVX was 2.06 µM (inactive); in the test on SK-MEL-5, 2.04 µM (inactive); in the test with SNB-75, 1.12 µM (inactive); in the test on K562 it was 0.465 µM (active); in the test on SW-620 it was 1.14 µM (inactive); with U-251 it was 1.57 µM (inactive). The GI50 in the test on SN12C is 2.06 µM (inactive); in the test with NCI-H460 it was 2.42 µM (inactive); with SK-MEL-28 it was 2.61 µM (inactive); with SK-MEL-2, 2.07 µM (inactive); with UACC-62, 1.84 µM (inactive); in the test on HCC 2998, 3.49 µM (inactive). Also, the figures for the GI50 in the test on RXF 393 and with CCRF-CEM were 1.85 µM (inactive) and 0.76 µM (active), respectively.

Broadly, the GI50 is the concentration that inhibits growth by half.
